The values below come from PubChem BioAssay (NCI).

Assay in all cases: inhibition of tumour cell growth, NCI panel, 48 h
For experiment [1], the system named is TK-10 renal.
Experiment [2] has as its system SNB-19 CNS.
Experiment [3] has as its system SN12C renal.
Experiment [4] relates to MDA-MB-231 breast.
In experiment [5] the test system is ACHN renal.
Experiment [6] has as its system HCT-116 colon.
Experiment [7] relates to HT29 colon.
The subject of experiment [8] is KM12 colon.
In experiment [9] the test system is UO-31 renal.
For experiment [10], the system named is A549 NSCLC.

SMILES strings stand for the structures. Values joined by “and” are separate entries in the source; they are usually repeats but may differ in a detail not shown here. Identical values can stand only once.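 The compound was tested at five concentrations on cells cultured in 96-well plates, with a 48-hour exposure period. At the GI50, growth is halved. The concentration for full growth arrest is given as TGI.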 Where a SMILES comes first, the peptide text is derived from it. Bridges are numbered along the chain shown (N, C = ends). The star is where a group is joined. Cbz = O=C(OCc1ccccc1)*

In the case of `O=C(/C=C(\O)c1ccccc1)/C(=C/C(=O)c1ccccc1)NN=C(c1ccccc1)c1ccccc1`, the TGI in experiment [1] is 97.6 µM; in experiment [2] it was greater than 100 µM; in experiment [3], greater than 100 µM; in experiment [4], greater than 100 µM; in experiment [5], greater than 100 µM; in experiment [6], greater than 100 µM. Besides, the TGI in experiment [7], in experiment [8], in experiment [9] and in [10] was greater than 100 µM throughout.

With `CCn1c2ccc(O)c(C(=O)OC)c2c2cc3ccccc3c(O)c21`, the TGI in experiment [1] is 55.7 µM; in experiment [2], greater than 100 µM; in [3], 41.6 µM; in experiment [4], greater than 100 µM; in experiment [5] it was 54.1 µM; in experiment [6], 29.2 µM. Besides, the TGI in [7] is 56.2 µM; in [8], 33.6 µM; in experiment [9], greater than 100 µM; in experiment [10] it was 83 µM.

With `O=c1[nH]cnc2sc(=S)c3c(c12)CCC3`, the TGI in experiment [1] was 61.9 µM; in [2], greater than 100 µM; in [3], greater than 100 µM; in experiment [4], greater than 100 µM; in experiment [5], 33.6 µM; in experiment [6], greater than 100 µM. Besides, the TGI in [7], in experiment [8], in [9] and in [10] was greater than 100 µM each time.

`CCOC(=O)/C(C#N)=C(/NNc1ccccc1)c1ccncc1C(=O)O`: the TGI in experiment [1], in experiment [2], in experiment [3], in experiment [4], in experiment [5] and in experiment [6] was greater than 100 µM in each case. For the same molecule, the TGI in [7], in experiment [8], in experiment [9] and in experiment [10] was greater than 100 µM throughout.

With `CC1C2CC(C/C2=N/O)C1(C)C` (stereo not drawn), the TGI in experiment [1], in experiment [2], in experiment [3], in experiment [4], in experiment [5] and in [6] was greater than 100 µM throughout. Besides, the TGI in experiment [7], in [8], in experiment [9] and in [10] was greater than 100 µM in each case.

As to `COC(=O)C1CCCCNC(=O)CCC(NC(=O)OCc2ccccc2)C(=O)N1` (stereo not drawn) (Cbz-Glu-Lys-OMe; lactam 1-2; configuration not given here), the TGI in experiment [1], in [2], in experiment [3], in experiment [4], in [5] and in experiment [6] was greater than 100 µM each time. Besides, the TGI in [7], in [8], in experiment [9] and in [10] was greater than 100 µM each time.

As to `C=CC(C)(C)c1cc([C@@H]2COc3cc(O)ccc3C2=O)c(O)c(O)c1OC`, the TGI in [1] was greater than 100 µM; in [2], 49 µM; in [3], 37.6 µM; in experiment [4], 57.5 µM; in experiment [5], 31.4 µM; in experiment [6], 32.6 µM. In addition, the TGI is 47.4 µM in experiment [7], 40.7 µM in [8], 35.4 µM in [9] and greater than 100 µM in experiment [10].

On to `COc1cc(OC)cc(-n2c(N)c(-c3nc4ccccc4n3C)c3ccc([N+](=O)[O-])cc3c2=O)c1`, for which the TGI in experiment [1], in experiment [2], in experiment [3], in [4], in experiment [5] and in [6] was greater than 100 µM each time. Moreover, the TGI in [7], in experiment [8], in experiment [9] and in experiment [10] was greater than 100 µM throughout.

As for `COC1=CC(=O)c2c(O)c3c(c(O)c2C1=O)C[C@](C)(O)C[C@@H]3O`, the TGI in [1] was 64.3 µM; in [2], 14.7 µM; in experiment [3], 13 µM; in experiment [4], 28.3 µM; in [5] it was 16 µM; in experiment [6] it was 8.94 µM. Further, the TGI is 8.05 µM in experiment [7], 19 µM in experiment [8], 26.9 µM in experiment [9] and 9.81 µM in experiment [10].

For the molecule `COc1cc([C@H]2Oc3c(OC)cc(CCCO)cc3[C@@H]2CO)ccc1O`, the TGI in experiment [1], in experiment [2], in experiment [3], in experiment [4], in [5] and in experiment [6] was greater than 100 µM each time. Further, the TGI in [7], in experiment [8], in experiment [9] and in experiment [10] was greater than 100 µM in each case.

As for `O=C(O)c1cc(Cl)cc2c1NC1(N2)C(=O)Nc2ccccc21` (stereo not drawn), the TGI in experiment [1], in experiment [2], in experiment [3], in experiment [4], in experiment [5] and in experiment [6] was greater than 100 µM throughout. The TGI in experiment [7], in experiment [8], in experiment [9] and in experiment [10] was greater than 100 µM each time.

With `COc1cc(OC)c2c(O)c(S(=O)(=O)c3ccc(C)cc3)c(=O)oc2c1`, the TGI in experiment [1], in experiment [2], in [3], in [4], in experiment [5] and in [6] was greater than 100 µM each time. The TGI in [7], in [8], in [9] and in experiment [10] was greater than 100 µM throughout.

For the molecule `O=C1CCC2(O)C3Cc4ccc(Oc5nnnn5-c5ccccc5)c5c4C2(CCN3CC2CC2)C1O5` (stereo not drawn), the TGI in experiment [1], in [2], in experiment [3], in experiment [4], in experiment [5] and in experiment [6] was greater than 100 µM in each case. Besides, the TGI in experiment [7] was 68.8 µM; in [8], greater than 100 µM; in [9], 61.1 µM; in experiment [10], greater than 100 µM.

For `C=C(Br)CNCC(=C)Br`, the TGI in [1], in [2], in experiment [3], in experiment [4], in experiment [5] and in [6] was greater than 100 µM in each case. Besides, the TGI in experiment [7], in [8], in [9] and in [10] was greater than 100 µM in each case.

Turning to `O=c1[nH]c2cc3cccnc3c(Cl)c2nc1CBr`, the TGI worked out at 61.8 µM in experiment [1]; 19.7 µM in experiment [2]; 27 µM in [3]; 34.4 µM in experiment [4]; 20.3 µM in [5]; 25.8 µM in experiment [6]. Moreover, the TGI in experiment [7] was determined as 35.9 µM; in [8], 33.3 µM; in experiment [9], 23.6 µM; in [10] it was 38.8 µM.

For the molecule `CC(NNC(=O)c1ccncc1)c1ccc(Cl)c(Cl)c1` (stereo not drawn), the TGI in [1], in experiment [2], in [3], in experiment [4], in experiment [5] and in experiment [6] was greater than 100 µM throughout. Further, the TGI in experiment [7], in [8], in experiment [9] and in [10] was greater than 100 µM throughout.

Regarding `CCOC(=O)C(NC(=O)CC)(Nc1ccc(S(=O)(=O)Nc2nc(C)cc(C)n2)cc1)C(F)(F)F` (stereo not drawn), the TGI in experiment [1], in experiment [2], in experiment [3], in experiment [4], in experiment [5] and in experiment [6] was greater than 100 µM throughout. Moreover, the TGI in experiment [7], in [8], in experiment [9] and in experiment [10] was greater than 100 µM each time.

With `Oc1nc(N/N=C/c2ccccc2)[nH]c1/C=C1\C=Nc2ccccc21`, the TGI in experiment [1], in experiment [2], in [3], in [4], in [5] and in [6] was greater than 100 µM throughout. Further, the TGI in experiment [7], in [8], in experiment [9] and in experiment [10] was greater than 100 µM throughout.

In the case of `Cc1ccc(N=C2SC(c3ccc(C)cc3)(c3ccc(C)cc3)c3ccccc32)cc1`, the TGI in experiment [1], in [2], in experiment [3], in experiment [4], in experiment [5] and in experiment [6] was greater than 100 µM in each case. Further, the TGI in experiment [7], in [8], in experiment [9] and in experiment [10] was greater than 100 µM each time.

As to `CC(C)C(C/C=C1/CC(CO)(COC(=O)C2CCCCC2)OC1=O)C(C)C` (stereo not drawn), the TGI in [1] came to 37.4 µM; in experiment [2], 29.8 µM; in experiment [3] it was 31.9 µM; in [4], 37.4 µM; in experiment [5], 30.2 µM; in [6], 33.9 µM. In addition, the TGI in experiment [7] was found to be 75.4 µM; in [8], 55.3 µM; in [9] it was 33.1 µM; in experiment [10], 26.4 µM.

With `Cc1ccc(OCC2OC(n3cnc4c(Cl)ncnc43)CC2Oc2ccc(C)cc2)cc1` (stereo not drawn), the TGI was greater than 100 µM in [1]; 6.86 µM and 33.4 µM in experiment [2]; 15.3 µM and 36.6 µM in [3]; 17.8 µM and 30.6 µM in [4]; 24.9 µM and 3.73 µM in experiment [5]; 7.13 µM and 38.2 µM in experiment [6]. Besides, the TGI in experiment [7] is 3.13 µM and 21.2 µM; in experiment [8] it was 6.57 µM and 42 µM; in [9], 15.8 µM and 3.29 µM; in experiment [10], 15.9 µM and 37 µM. For the same molecule, the GI50 was 2.8 µM and 17 µM in experiment [2]; 7.49 µM and 17.5 µM in experiment [3]; 11.1 µM and 1.98 µM in experiment [5]; 2.4 µM and 14.3 µM in [6]; 1.69 µM and 6.15 µM in [7]; 2.42 µM and 14.3 µM in [8]. Also, the GI50 in experiment [9] was 8.08 µM and 1.84 µM; in experiment [10] it was 7.37 µM and 18.9 µM.
